Reference: the CheMixHub viscosity set

Experiment: xn = mol fraction of the nth substance listed

Nc1cccc(Cl)c1 + CCC(C)O
viscosity [mPa·s], 101 kPa
Conditions | x1 = 0.0889 | x1 = 0.1799 | x1 = 0.2733 | x1 = 0.3691 | x1 = 0.4674 | x1 = 0.5683 | x1 = 0.6719 | x1 = 0.7783 | x1 = 0.8876
303.15 K | 2.756 | 2.919 | 3.087 | 3.256 | 3.422 | 3.585 | 3.744 | 3.904 | 4.07
308.15 K | 2.318 | 2.483 | 2.65 | 2.817 | 2.983 | 3.148 | 3.313 | 3.48 | 3.654
313.15 K | 2.001 | 2.157 | 2.312 | 2.467 | 2.623 | 2.779 | 2.937 | 3.097 | 3.261
318.15 K | 1.706 | 1.857 | 2.003 | 2.147 | 2.29 | 2.434 | 2.579 | 2.727 | 2.874

CC12CCC(CC1)C(C)(C)O2 + CCCCCC
298.15 K, 101.33 kPa
Conditions | viscosity [mPa·s]
x2 = 0.0339 | 2.317
x2 = 0.0677 | 2.11
x2 = 0.1616 | 1.642
x2 = 0.2491 | 1.325
x2 = 0.3454 | 1.063
x2 = 0.4734 | 0.8
x2 = 0.6205 | 0.593
x2 = 0.7181 | 0.491
x2 = 0.8281 | 0.4
x2 = 0.8953 | 0.359
x2 = 0.9363 | 0.33

CCCOC(=O)CC + CCCCCC
298.15 K, 101.33 kPa
Conditions | viscosity [mPa·s]
x1 = 0.0581 | 0.299
x1 = 0.1227 | 0.31
x1 = 0.2151 | 0.33
x1 = 0.3111 | 0.355
x1 = 0.3983 | 0.379
x1 = 0.4343 | 0.389
x1 = 0.4898 | 0.401
x1 = 0.5466 | 0.421
x1 = 0.586 | 0.433
x1 = 0.68 | 0.465
x1 = 0.8894 | 0.557
x1 = 0.9133 | 0.573

Cc1ccccc1Cl + CCCCCC
viscosity [mPa·s], 100 kPa
Conditions | 298.15 K | 308.15 K | 318.15 K
x1 = 0.0629 | 0.341 | 0.315 | 0.292
x1 = 0.1435 | 0.369 | 0.338 | 0.313
x1 = 0.2364 | 0.398 | 0.37 | 0.343
x1 = 0.3403 | 0.436 | 0.401 | 0.37
x1 = 0.4252 | 0.477 | 0.437 | 0.401
x1 = 0.4608 | 0.499 | 0.451 | 0.414
x1 = 0.5249 | 0.54 | 0.485 | 0.445
x1 = 0.5742 | 0.574 | 0.515 | 0.471
x1 = 0.6237 | 0.611 | 0.546 | 0.496
x1 = 0.6816 | 0.657 | 0.585 | 0.531
x1 = 0.7398 | 0.705 | 0.624 | 0.565
x1 = 0.8335 | 0.785 | 0.7 | 0.63
x1 = 0.9276 | 0.889 | 0.789 | 0.706

C1C[C@@H]2[C@H]3CC[C@H](C3)[C@@H]2C1 + CCCCCCCC
viscosity [mPa·s], 100 kPa
Conditions | x1 = 0.1007 | x1 = 0.2005 | x1 = 0.2991 | x1 = 0.4 | x1 = 0.5001 | x1 = 0.5986 | x1 = 0.6988 | x1 = 0.8019 | x1 = 0.9005
293.15 K | 0.616 | 0.697 | 0.806 | 0.956 | 1.085 | 1.282 | 1.537 | 1.896 | 2.342
298.15 K | 0.582 | 0.655 | 0.756 | 0.892 | 1.007 | 1.187 | 1.415 | 1.735 | 2.13
303.15 K | 0.551 | 0.618 | 0.711 | 0.83 | 0.94 | 1.102 | 1.311 | 1.597 | 1.95
308.15 K | 0.523 | 0.585 | 0.67 | 0.78 | 0.879 | 1.027 | 1.215 | 1.475 | 1.793
313.15 K | 0.499 | 0.555 | 0.634 | 0.733 | 0.825 | 0.96 | 1.13 | 1.367 | 1.654

CCCOC(=O)CC + CCCCCCCCCC
298.15 K, 101.33 kPa
Conditions | viscosity [mPa·s]
x2 = 0.0964 | 0.647
x2 = 0.1323 | 0.65
x2 = 0.1683 | 0.653
x2 = 0.2534 | 0.661
x2 = 0.3486 | 0.672
x2 = 0.3989 | 0.68
x2 = 0.5459 | 0.706
x2 = 0.6381 | 0.728
x2 = 0.7337 | 0.756
x2 = 0.8679 | 0.802
x2 = 0.9275 | 0.827

CCC(C)c1ccccc1 (stereo not given) + CCCCCCCCCCCC
viscosity [mPa·s], 102 kPa
Conditions | x1 = 0.1008 | x1 = 0.2007 | x1 = 0.2993 | x1 = 0.4003 | x1 = 0.4998 | x1 = 0.62 | x1 = 0.6996 | x1 = 0.7999 | x1 = 0.9004
293.15 K | 1.41 | 1.33 | 1.26 | 1.19 | 1.131 | 1.064 | 1.027 | 0.992 | 0.959
303.15 K | 1.19 | 1.128 | 1.072 | 1.02 | 0.971 | 0.923 | 0.896 | 0.862 | 0.835
313.15 K | 1.015 | 0.973 | 0.935 | 0.893 | 0.853 | 0.812 | 0.784 | 0.755 | 0.732
323.15 K | 0.888 | 0.852 | 0.817 | 0.783 | 0.751 | 0.717 | 0.694 | 0.669 | 0.649

CCCOC(=O)CC + CCCCCCCCCCCCCC
298.15 K, 101.33 kPa
Conditions | viscosity [mPa·s]
x2 = 0.0774 | 0.704
x2 = 0.1347 | 0.757
x2 = 0.2041 | 0.828
x2 = 0.2829 | 0.915
x2 = 0.3321 | 0.972
x2 = 0.4571 | 1.13
x2 = 0.5528 | 1.263
x2 = 0.6895 | 1.473
x2 = 0.8219 | 1.706
x2 = 0.9084 | 1.878

CCCCCCCCCCCCCC[P+](CCCCCC)(CCCCCC)CCCCCC.c1c[n-]nn1 + CCCCCCCCCCCCCC[P+](CCCCCC)(CCCCCC)CCCCCC.O=S(=O)([N-]S(=O)(=O)C(F)(F)F)C(F)(F)F
viscosity [mPa·s], 100 kPa
Conditions | x1 = 0.098 | x1 = 0.201 | x1 = 0.3 | x1 = 0.401 | x1 = 0.5 | x1 = 0.599 | x1 = 0.7 | x1 = 0.797 | x1 = 0.901
293.15 K | 425 | 473 | 495 | 465 | 502 | 539 | 533 | 547 | 553
298.15 K | 313 | 348 | 362 | 338 | 363 | 390 | 385 | 393 | 397
303.15 K | 236 | 261 | 270 | 251 | 270 | 288 | 284 | 289 | 291
308.15 K | 181 | 200 | 207 | 191 | 204 | 218 | 214 | 217 | 220
313.15 K | 142 | 156 | 160 | 148 | 158 | 168 | 165 | 167 | 168
318.15 K | 112 | 124 | 127 | 117 | 124 | 132 | 129 | 131 | 132
323.15 K | 91 | 100 | 102 | 94 | 100 | 106 | 103 | 104 | 106

Nc1cccc(Cl)c1 + CCCCCCCCCCO
viscosity [mPa·s], 101 kPa
Conditions | x1 = 0.1699 | x1 = 0.3153 | x1 = 0.4411 | x1 = 0.5511 | x1 = 0.6481 | x1 = 0.7342 | x1 = 0.8112 | x1 = 0.8805 | x1 = 0.9431
303.15 K | 8.772 | 7.947 | 7.247 | 6.641 | 6.113 | 5.648 | 5.238 | 4.871 | 4.546
308.15 K | 7.358 | 6.71 | 6.16 | 5.687 | 5.274 | 4.912 | 4.593 | 4.31 | 4.061
313.15 K | 6.213 | 5.693 | 5.254 | 4.878 | 4.549 | 4.262 | 4.01 | 3.788 | 3.596
318.15 K | 5.338 | 4.899 | 4.532 | 4.217 | 3.943 | 3.704 | 3.494 | 3.311 | 3.153

Nc1cccc(Cl)c1 + CCCCCCCCO
viscosity [mPa·s], 101 kPa
Conditions | x1 = 0.1441 | x1 = 0.2748 | x1 = 0.3937 | x1 = 0.5026 | x1 = 0.6025 | x1 = 0.6945 | x1 = 0.7795 | x1 = 0.8584 | x1 = 0.9317
303.15 K | 6.059 | 5.754 | 5.485 | 5.247 | 5.034 | 4.844 | 4.674 | 4.519 | 4.379
308.15 K | 5.155 | 4.924 | 4.723 | 4.547 | 4.391 | 4.253 | 4.131 | 4.02 | 3.924
313.15 K | 4.409 | 4.229 | 4.076 | 3.941 | 3.823 | 3.721 | 3.63 | 3.551 | 3.483
318.15 K | 3.856 | 3.697 | 3.564 | 3.448 | 3.347 | 3.258 | 3.181 | 3.114 | 3.06

Nc1cccc(Cl)c1 + CCCCCCCO
viscosity [mPa·s], 101 kPa
Conditions | x1 = 0.1306 | x1 = 0.2526 | x1 = 0.3669 | x1 = 0.4741 | x1 = 0.5749 | x1 = 0.6698 | x1 = 0.7593 | x1 = 0.844 | x1 = 0.9241
303.15 K | 4.923 | 4.794 | 4.684 | 4.589 | 4.509 | 4.442 | 4.385 | 4.336 | 4.292
308.15 K | 4.229 | 4.143 | 4.072 | 4.014 | 3.966 | 3.927 | 3.895 | 3.869 | 3.853
313.15 K | 3.647 | 3.585 | 3.538 | 3.501 | 3.473 | 3.451 | 3.438 | 3.433 | 3.432
318.15 K | 3.346 | 3.269 | 3.207 | 3.156 | 3.114 | 3.079 | 3.051 | 3.032 | 3.023

Nc1cccc(Cl)c1 + CCCCCCO
viscosity [mPa·s], 101 kPa
Conditions | x1 = 0.1167 | x1 = 0.2291 | x1 = 0.3375 | x1 = 0.4421 | x1 = 0.5431 | x1 = 0.6407 | x1 = 0.735 | x1 = 0.8263 | x1 = 0.9145
303.15 K | 3.905 | 3.925 | 3.95 | 3.98 | 4.014 | 4.056 | 4.104 | 4.156 | 4.205
308.15 K | 3.383 | 3.417 | 3.454 | 3.497 | 3.545 | 3.598 | 3.654 | 3.715 | 3.776
313.15 K | 2.939 | 2.976 | 3.017 | 3.064 | 3.115 | 3.17 | 3.229 | 3.292 | 3.357
318.15 K | 2.662 | 2.681 | 2.707 | 2.738 | 2.773 | 2.814 | 2.857 | 2.906 | 2.959

CCCCCCCCCCCCCC[P+](CCCCCC)(CCCCCC)CCCCCC.c1c[n-]nn1 + CCCCCCn1cc[n+](C)c1.O=S(=O)([N-]S(=O)(=O)C(F)(F)F)C(F)(F)F
viscosity [mPa·s], 100 kPa
Conditions | 293.15 K | 298.15 K | 303.15 K | 308.15 K | 313.15 K | 318.15 K | 323.15 K
x1 = 0.151 | 159 | 122 | 96 | 77 | 62 | 51 | –
x1 = 0.302 | 268 | 200 | 152 | 119 | 94 | 76 | 62
x1 = 0.42 | 402 | 294 | 219 | 168 | 131 | 104 | 84
x1 = 0.55 | 498 | 358 | 262 | 197 | 151 | 118 | 94
x1 = 0.652 | 614 | 437 | 317 | 236 | 180 | 139 | 109
x1 = 0.7 | 725 | 511 | 369 | 274 | 206 | 159 | 125
x1 = 0.865 | 744 | 527 | 382 | 284 | 215 | 166 | 131
